Experiments:
Tie2 [1] = target: T1, Tie2 (Homo sapiens, UniProt Q02763); test: Tie2 ELISA assay (cellular Tie2 autophosphorylation); assay type: cell-based; design: expressed in transfected cells; host or cells: CHO (CHO Tie2/DHFR); conditions: CHO cells stably transfected with Tie2, stimulated by angiopoietin-2; Tie2 autophosphorylation by sandwich-ELISA; read-out: Tie 2 activity (assay 1)
Method: Cellular activity of compounds of the present invention as inhibitors of Tie2 kinase activity was measured employing a Tie2 ELISA assay as described in the following paragraphs. Herein CHO cell-cultures, which are stably transfected by known techniques with Tie2 using DHFR deficiency as selection marker, are stimulated by angiopoietin-2. The specific autophosphorylation of Tie2 receptors is quantified with a sandwich-ELISA using anti-Tie2 antibodies for catch and anti-phosphotyrosine antibodies coupled to HRP for detection.
• 96 well tissue culture plate, sterile, Greiner • 96 well FluoroNunc plate MaxiSorp Surface C, Nunc • 96 well plate polypropylene for compound dilution in DMSO • CHO Tie2/DHFR (transfected cells) • PBS−; PBS++, DMSO • MEM alpha Medium with Glutamax-I without Ribonucleosides and Deoxyribonucleosides (Gibco #32561-029) • with 10% FCS after dialysis! and 1% PenStrep • Lysis buffer: 1 Tablet “Complete” protease inhibitor • 1 cap Vanadate (1 mL>40 mg/mL; working solution 2 mM) • ad 50 mL with Duschl-Puffer • pH 7.6 • Anti-Tie2-antibody 1:425 in Coating Buffer pH 9.6 • Stock solution: 1.275 mg/mL>working.: 3 μg/mL • PBST: 2 bottles PBS (10×)+10 ml Tween, fill up with VE-water • RotiBlock 1:10 in VE-water • Anti-Phosphotyrosine HRP-Conjugated 1:10000 in 3% TopBlock • 3% TopBlock in PBST • BM Chemiluminescence ELISA Substrate (POD) • solution B 1:100 solution A • SF9 cell culture medium • Ang2-Fc in SF9 cell culture medium
• Dispense 5×10^4 cells/well/98 μL in 96 well tissue culture plate • Incubate at 37° C./5% CO2 • After 24 h add compounds according to desired concentrations • Add also to control and stimulated values without compounds 2 μL DMSO • And mix for a few min at room temperature • Add 100 μL Ang2-Fc to all wells except control, which receives insect medium • Incubate 20 min at 37° C. • Wash 3× with PBS++ • Add 100 μl Lysis buffer/well and shake a couple of min at room temperature • Store lysates at […] before utilizing for the ELISA
• Coat 96 well FluoroNunc Plate MaxiSorp Surface C with anti-Tie2 mAb 1:425 in Coating buffer pH 9.6; 100 μL/well overnight at 4° C. • Wash 2× with PBST • Block plates with 250 μL/well RotiBlock 1:10 in VE-water • Incubate for 2 h at room temperature or overnight at 4° C. shaking • Wash 2× in PBST • Add thawed lysates to wells and incubate overnight shaking at 4° C. • Wash 2× with PBST • Add 100 μL/well anti-Phosphotyrosine HRP-Conjugated 1:10000 in 3% TopBlock (3% TopBlock in PBST) and incubate overnight under shaking • Wash 6× with PBST • Add 100 μL/well BM Chemiluminescence ELISA Substrate (POD) solutions 1 und 2 (1:100) • Determine luminescence with the LumiCount. Assay 2: Tie-2-Kinase HTRF-Assay without Kinase Preactivation
Target sequence in this assay (Q02763 23-1124, species assumed): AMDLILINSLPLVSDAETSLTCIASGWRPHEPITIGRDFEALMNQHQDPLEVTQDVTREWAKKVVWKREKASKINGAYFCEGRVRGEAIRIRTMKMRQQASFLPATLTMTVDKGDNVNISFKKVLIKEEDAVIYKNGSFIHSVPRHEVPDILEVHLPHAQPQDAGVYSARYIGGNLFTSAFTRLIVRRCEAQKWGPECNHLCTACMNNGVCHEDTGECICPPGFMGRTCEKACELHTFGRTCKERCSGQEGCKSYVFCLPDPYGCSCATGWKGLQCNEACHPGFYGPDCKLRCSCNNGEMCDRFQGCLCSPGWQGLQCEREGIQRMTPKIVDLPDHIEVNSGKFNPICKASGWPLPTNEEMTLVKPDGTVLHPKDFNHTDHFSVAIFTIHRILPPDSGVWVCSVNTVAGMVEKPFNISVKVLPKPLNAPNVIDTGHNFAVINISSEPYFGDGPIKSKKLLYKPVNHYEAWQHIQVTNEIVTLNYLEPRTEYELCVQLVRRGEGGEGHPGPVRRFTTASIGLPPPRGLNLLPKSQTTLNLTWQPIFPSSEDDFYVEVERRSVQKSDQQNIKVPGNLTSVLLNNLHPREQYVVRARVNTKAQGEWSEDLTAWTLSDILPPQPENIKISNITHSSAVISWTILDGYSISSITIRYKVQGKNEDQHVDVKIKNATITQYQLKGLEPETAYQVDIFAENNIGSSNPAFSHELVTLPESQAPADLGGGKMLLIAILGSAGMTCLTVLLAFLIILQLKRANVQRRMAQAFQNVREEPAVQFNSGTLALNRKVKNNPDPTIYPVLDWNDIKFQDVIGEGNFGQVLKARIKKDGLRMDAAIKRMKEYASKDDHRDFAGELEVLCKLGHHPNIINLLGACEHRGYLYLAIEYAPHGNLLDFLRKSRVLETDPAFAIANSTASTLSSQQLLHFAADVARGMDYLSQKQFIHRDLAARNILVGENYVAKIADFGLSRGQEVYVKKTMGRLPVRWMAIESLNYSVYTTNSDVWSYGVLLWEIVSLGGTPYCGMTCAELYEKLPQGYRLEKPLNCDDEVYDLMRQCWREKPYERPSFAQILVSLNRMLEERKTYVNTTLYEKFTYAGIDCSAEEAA

Tie2 [2] = target: T1, Tie2; test: Tie-2-Kinase HTRF-Assay without kinase preactivation; assay type: biochemical; design: fusion protein of GST and the intracellular domains of Tie-2; GST; made in house; host or cells: insect cells (Hi-5); conditions: GST-Tie-2 intracellular domains, 10 μM ATP
Source text: Tie2-inhibitory activity of compounds of the present invention was quantified employing two Tie2 HTRF assay as described in the following paragraphs.
A recombinant fusion protein of GST and the intracellular domains of Tie-2, expressed in insect cells (Hi-5) and purified by Glutathion-Sepharose affinity chromatography was used as kinase. Alternatively, commercially available GST-Tie2-fusion protein (Upstate Biotechnology, Dundee, Scotland) can be used As substrate for the kinase reaction the biotinylated peptide biotin-Ahx-EPKDDAYPLYSDFG (C-terminus in amid form) was used which can be purchased e.g. from the company Biosynthan GmbH (Berlin-Buch, Germany). Detection of phosphorylated product is achieved specifically by a trimeric detection complex consisting of the phosphorylated substrate, streptavidin-XLent (SA-XLent) which binds to biotin, and Europium Cryptate-labeled anti-phosphotyrosine antibody PT66 which binds to phosphorylated tyrosine.
Tie-2 (3.5 ng/measurement point) was incubated for 60 min at 22° C. in the presence of 10 μM adenosine-tri-phosphate (ATP) and 1 μM substrate peptide (biotin-Ahx-EPKDDAYPLYSDFG-NH2) with different concentrations of test compounds (0 μM and concentrations in the range 0.001-20 μM) in 5 μl assay buffer [50 mM Hepes/NaOH pH 7, 10 mM MgCl2, 0.5 mM MnCl2, 1.0 mM dithiothreitol, 0.01% NP40, protease inhibitor mixture (“Complete w/o EDTA” from Roche, 1 tablet per 2.5 ml), 1% (v/v) dimethylsulfoxide]. The reaction was stopped by the addition of 5 μl of an aqueous buffer (25 mM Hepes/NaOH pH 7.5, 0.28% (w/v) bovine serum albumin) containing EDTA (90 mM) and the HTRF (Homogeneous Time Resolved Fluorescence) detection reagents streptavidine-XLent (0.2 μM, from Cis Biointernational, Marcoule, France) and PT66-Eu-Chelate (0.3 ng/μl; a europium-chelate labelled anti-phospho-tyrosine antibody from Perkin Elmer).
The resulting mixture was incubated 1 h at 22° C. to allow the binding of the biotinylated phosphorylated peptide to the streptavidine-XLent and the PT66-Eu-Chelate. Subsequently the amount of phosphorylated substrate peptide was evaluated by measurement of the resonance energy transfer from the PT66-Eu-Chelate to the streptavidine-XLent. Therefore, the fluorescence emissions at 620 nm and 665 nm after excitation at 350 nm was measured in a HTRF reader, e.g. a Rubystar (BMG Labtechnologies, Offenburg, Germany) or a Viewlux (Perkin-Elmer). The ratio of the emissions at 665 nm and at […] was taken as the measure for the amount of phosphorylated substrate peptide. The data were normalised (enzyme reaction without inhibitor=0% inhibition, all other assay components but no enzyme=100% inhibition) and IC50 values were calculated by a 4 parameter fit using an inhouse software.
Target sequence in this assay (Q02763 770-1124 limits assumed, species assumed): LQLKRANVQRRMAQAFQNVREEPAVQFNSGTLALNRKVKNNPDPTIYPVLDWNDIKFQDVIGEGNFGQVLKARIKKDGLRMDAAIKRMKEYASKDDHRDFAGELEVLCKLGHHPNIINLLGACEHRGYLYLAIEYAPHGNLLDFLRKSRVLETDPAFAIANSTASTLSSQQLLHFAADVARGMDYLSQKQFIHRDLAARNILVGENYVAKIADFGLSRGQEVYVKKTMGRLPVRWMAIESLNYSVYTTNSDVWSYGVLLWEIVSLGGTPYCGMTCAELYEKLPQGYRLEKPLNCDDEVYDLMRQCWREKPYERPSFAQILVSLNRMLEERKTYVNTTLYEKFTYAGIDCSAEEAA

| IC50 (Tie2 [1]) [nM] | IC50 (Tie2 [2]) [nM] | SMILES |
| --- | --- | --- |
| < 501 | < 501 | Cn1ncc2c(-c3ccc(NC(=O)Nc4cc(C(F)(F)F)ccc4F)cc3)cncc21 [Example 1.2, 1-(2-Fluoro-5-trifluoromethyl-phenyl)-3-[4-(1-methyl-1H-pyrazolo[3,4-c]pyridin-4-yl)-phenyl]-urea] |
| < 501 | < 501 | Cc1ccc(F)c(NC(=O)Nc2ccc(-c3cncc4c3cnn4C)cc2)c1 [Example 1.3, 1-(2-Fluoro-5-methyl-phenyl)-3-[4-(1-methyl-1H-pyrazolo[3,4-c]pyridin-4-yl)-phenyl]-urea] |
| < 501 | < 501 | Cn1ncc2c(-c3ccc(NC(=O)Nc4cccc(C(F)(F)F)c4)cc3)cncc21 [Example 1.4, 1-[4-(1-Methyl-1H-pyrazolo[3,4-c]pyridin-4-yl)-phenyl]-3-(3-trifluoromethyl-phenyl)-urea] |
| < 501 | < 501 | CCc1cccc(NC(=O)Nc2ccc(-c3cncc4c3cnn4C)cc2)c1 [Example 1.5, 1-(3-Ethyl-phenyl)-3-[4-(1-methyl-1H-pyrazolo[3,4-c]pyridin-4-yl)-phenyl]-urea] |
| < 501 | < 501 | Cn1ncc2c(-c3ccc(NC(=O)Nc4cc(C(F)(F)F)ccn4)cc3)cncc21 [Example 1.9, 1-[4-(1-Methyl-1H-pyrazolo[3,4-c]pyridin-4-yl)-phenyl]-3-(4-trifluoromethyl-pyridin-2-yl)-urea] |
| < 501 | < 501 | Cn1ncc2c(-c3ccc(NC(=O)Nc4cc(C(F)(F)F)ccc4Cl)cc3)cncc21 [Example 1.13, 1-(2-Chloro-5-trifluoromethyl-phenyl)-3-[4-(1-methyl-1H-pyrazolo[3,4-c]pyridin-4-yl)-phenyl]-urea] |
| < 501 | < 501 | Cn1ncc2c(-c3ccc(NC(=O)Nc4cccc(C(F)(F)F)c4)c(F)c3)cncc21 [Example 3.1, 1-[2-Fluoro-4-(1-methyl-1H-pyrazolo[3,4-c]pyridin-4-yl)-phenyl]-3-(3-trifluoromethyl-phenyl)-urea] |
| < 501 | < 501 | Cc1cc(-c2cncc3c2cnn3C)ccc1NC(=O)Nc1cccc(C(F)(F)F)c1 [Example 4.1, 1-[2-Methyl-4-(1-methyl-1H-pyrazolo[3,4-c]pyridin-4-yl)-phenyl]-3-(3-trifluoromethyl-phenyl)-urea] |
| 501 to 1000 | 501 to 1000 | CN(C(=O)Nc1cccc(C(F)(F)F)c1)c1ccc(-c2cncc3c2cnn3C)cc1 [Example 6.1, 1-Methyl-1-[4-(1-methyl-1H-pyrazolo[3,4-c]pyridin-4-yl)-phenyl]-3-(3-trifluoromethyl-phenyl)-urea] |
| < 501 | < 501 | Cn1ncc2c(-c3ccc(NC(=O)Nc4cc(C(F)(F)F)ccc4F)c(F)c3)cncc21 [Example 6.3, 1-[2-Fluoro-4-(1-methyl-1H-pyrazolo[3,4-c]pyridin-4-yl)-phenyl]-3-(2-fluoro-5-trifluoromethyl-phenyl)-urea] |
| < 501 | < 501 | CN1CCN(Cc2ccc(NC(=O)Nc3ccc(-c4cncc5c4cnn5C)cc3)cc2C(F)(F)F)CC1 [Example 6.4, 1-[4-(4-Methyl-piperazin-1-ylmethyl)-3-trifluoromethyl-phenyl]-3-[4-(1-methyl-1H-pyrazolo[3,4-c]pyridin-4-yl)-phenyl]-urea] |
| < 501 | < 501 | O=C(Nc1ccc(-c2cncc3c2cnn3CCO)cc1F)Nc1cc(C(F)(F)F)ccc1F [Example 8.1, 1-{2-Fluoro-4-[1-(2-hydroxy-ethyl)-1H-pyrazolo[3,4-c]pyridin-4-yl]-phenyl}-3-(2-fluoro-5-trifluoromethyl-phenyl)-urea] |
| < 501 | < 501 | O=C(Nc1ccc(-c2cncc3c2cnn3CCO)cc1)Nc1cc(C(F)(F)F)ccc1F [Example 8.2, 1-(2-Fluoro-5-trifluoromethyl-phenyl)-3-{4-[1-(2-hydroxy-ethyl)-1H-pyrazolo[3,4-c]pyridin-4-yl]-phenyl}-urea] |
| < 501 | < 501 | O=C(Nc1cccc(C(F)(F)F)c1)Nc1ccc(-c2cncc3c2cnn3CCO)cc1F [Example 8.5, 1-{2-Fluoro-4-[1-(2-hydroxy-ethyl)-1H-pyrazolo[3,4-c]pyridin-4-yl]-phenyl}-3-(3-trifluoromethyl-phenyl)-urea] |
| < 501 | < 501 | CN1CCN(Cc2ccc(NC(=O)Nc3ccc(-c4cncc5c4cnn5CCO)cc3)cc2C(F)(F)F)CC1 [Example 8.6, 1-{4-[1-(2-Hydroxy-ethyl)-1H-pyrazolo[3,4-c]pyridin-4-yl]-phenyl}-3-[4-(4-methyl-piperazin-1-ylmethyl)-3-trifluoromethyl-phenyl]-urea] |
| < 501 | < 501 | CCn1ncc2c(-c3ccc(NC(=O)Nc4cc(C(F)(F)F)ccc4F)cc3)cncc21 [Example 10.5, 1-[4-(1-Ethyl-1H-pyrazolo[3,4-c]pyridin-4-yl)-phenyl]3-(2-fluoro-5-trifluoromethyl-phenyl)-urea] |
| < 501 | < 501 | CCn1ncc2c(-c3ccc(NC(=O)Nc4cccc(C(F)(F)F)c4)c(F)c3)cncc21 [Example 11.1, 1-[4-(1-Ethyl-1H-pyrazolo[3,4-c]pyridin-4-yl)-2-fluoro-phenyl]-3-(3-trifluoromethyl-phenyl)-urea] |
| < 501 | < 501 | CCn1ncc2c(-c3ccc(NC(=O)Nc4cc(C(F)(F)F)ccc4F)c(F)c3)cncc21 [Example 11.2, 1-[4-(1-Ethyl-1H-pyrazolo[3,4-c]pyridin-4-yl)-2-fluoro-phenyl]-3-(2-fluoro-5-trifluoromethyl-phenyl)-urea] |
| < 501 | < 501 | CCn1ncc2c(-c3ccc(NC(=O)Nc4cc(C)ccc4F)c(F)c3)cncc21 [Example 11.3, 1-[4-(1-Ethyl-1H-pyrazolo[3,4-c]pyridin-4-yl)-2-fluoro-phenyl]-3-(2-fluoro-5-methyl-phenyl)-urea] |

Source: patent US20090062273A1, “3-H-pyrazolopyridines and salts thereof, pharmaceutical compositions comprising same, methods of preparing same and uses of same” (priority 2006, published 2009)
